Assay results published in patent US20120010075A1 (priority 2009, published 2012).
Read-outs that look alike come from different tables or passages of the source.

Columns and labels:
[1] = test system: Leptosphaeria nodorum (LEPTNO); test: In vitro fungitoxicity of hydrazones with and without copper towards Leptosphaeria nodorum (Example 26); type: cell-based; settings: 72 h at 25° C.; for inhibition of growth at 0.05 µg/mL: Parastagonospora nodorum, 72 h, read-out: LEPTNO % Inhn. Minus Copper Observed
Phytophthora infestans = type: in vivo, Phytophthora infestans on tomato; settings: applied 24 h before inoculation, assessed 7 days after inoculation
[2] = compound 0.05 μg/mL, copper-minus medium
[3] = compound 0.05 μg/mL, copper-plus medium (CuCl2.2H2O)
[4] = hydrazone 50 ppm + 50 μM CuCl2.2H2O, tomato
[5] = copper-minus medium, test compound Concn. 0.05 μg/mL
[6] = copper-plus medium (CuCl2 10 μM), test compound Concn. 0.05 μg/mL
[7] = hydrazone 50 ppm with 50 μM CuCl2.2H2O, tomato late blight

Row | SMILES | inhibition of growth at 0.05 µg/mL [1, 2] | LEPTNO % Inhn. Plus Copper Observed [1, 3] | TLB % Control (Phytophthora infestans; [4]) | melting point | inhibition of growth at 0.05 µg/mL [1, 5] | LEPTNO % Inhn. Plus Copper Observed [1, 6] | TLB % Control (Phytophthora infestans; [7]) | LEPTNO % Inhn. Minus Copper Observed [1, 2]
1 | C/C(=N\NC(=O)c1cccc(Cl)c1)c1cc(Br)ccc1O [Example 292] | 5% | 97.6% | 21.0% | 235 to 240 °C | – | – | – | –
2 | C/C(=N\NC(=O)c1ccccc1C)c1cc(Cl)ccc1O [Example 505] | – | – | – | 192 to 193 °C | 7.1% | 97.3% | 46.0% | –
3 | C/C(=N\NC(=O)c1ccccc1)c1cc(Br)ccc1O [Example 287] | 0% | 98.3% | 65.0% | 204 to 208 °C | – | – | – | –
4 | O=C(N/N=C/c1c(O)cccc1F)c1ccccc1 [Example 245] | 0% | 96.7% | 52.7% | 216 to 218 °C | – | – | – | –
5 | O=C(N/N=C/c1cccc(C(F)(F)F)c1O)c1ccc(F)cc1 [Example 346] | – | – | – | 187 to 188 °C | 30% | 96.7% | 96.0% | –
6 | COc1ccc(O)c(C(=O)N/N=C(\C)c2cc(Cl)cc(Cl)c2O)c1 [Example 478] | – | – | – | 327 to 331 °C | 0.7% | 94.7% | 65.0% | –
7 | Cc1cccc(C(=O)N/N=C/c2cccc(Cl)c2O)c1 [Example 423] | – | – | – | 166 to 169 °C | 0.8% | 98.0% | 98.0% | –
8 | COc1cccc(O)c1/C=N/NC(=O)c1ccccc1 [Example 237] | 0% | 91.8% | 45.0% | 215 to 216 °C | – | – | – | –
9 | O=C(N/N=C/c1cc([N+](=O)[O-])cc(Br)c1O)c1cccc(Cl)c1 [Example 201] | 4% | 96.0% | 50.9% | 276 to 280 °C | – | – | – | –
10 | C/C(=N\NC(=O)c1ccccc1Br)c1cc(Br)ccc1O [Example 519] | – | – | – | 216 to 218 °C | 9.1% | 95.7% | 88.0% | –
11 | O=C(N/N=C/c1cc(Cl)cc(Cl)c1O)c1ccc(C(F)(F)F)cc1 [Example 81] | 2.4% | 96.1% | 97.0% | 238 to 240 °C | – | – | – | –
12 | O=C(N/N=C/c1c(F)ccc(F)c1O)c1ccccc1 [Example 244] | 0% | 96.1% | 62.7% | 206 to 207 °C | – | – | – | –
13 | Cc1cccc(C(=O)N/N=C/c2cccc(C(F)(F)F)c2O)c1 [Example 343] | – | – | – | 188 to 190 °C | 2.8% | 95.4% | 97.0% | –
14 | COc1cc(O)c(/C(C)=N/NC(=O)c2ccc(C)cc2)c(OC)c1 [Example 566] | – | – | – | 177 to 184 °C | 6.8% | 95.9% | 70.0% | –
15 | COc1ccc(O)c(/C(C)=N/NC(=O)c2ccccc2)c1 [Example 261] | 2.7% | 97.9% | 10.0% | 150 to 152 °C | – | – | – | –
16 | Cc1ccc(C(=O)N/N=C/c2cccc(Cl)c2O)cc1 [Example 424] | – | – | – | 230 to 232 °C | 22.3% | 97.0% | 100.0% | –
17 | O=C(N/N=C/c1ccc(Cl)c(Cl)c1O)c1ccc(F)cc1 [Example 357] | – | – | – | 244 to 246 °C | 56.7% | 97.4% | 93.0% | –
18 | O=C(N/N=C/c1cc(Cl)cc(Br)c1O)c1ccc(OC(F)(F)F)cc1 [Example 106] | 0% | 94.6% | 88.7% | 210 to 220 °C | – | – | – | –
19 | O=C(N/N=C/c1cc(Br)ccc1O)c1ccc(C(F)(F)F)cc1 [Example 184] | 7.1% | 97.0% | 70.9% | 219 to 222 °C | – | – | – | –
20 | Cc1ccc(C(=O)N/N=C/c2cc(C(F)(F)F)cc(Cl)c2O)cc1 [Example 322] | – | – | – | 269 to 271 °C | 20.9% | 97.9% | 95.0% | –
21 | CC/C(=N\NC(=O)c1ccc(C)cc1C)c1ccccc1O [Example 34] | – | 97.8% | 68.4% | 175 to 176 °C | – | – | – | 0.0%
